# The NIST ThermoML archive (doi:10.1021/je800899w)
# Numbers after ± are expanded uncertainties.
# Assays:
# [1] = 298.15 K, 101.33 kPa, Liquid; for viscosity: Capillary tube (Ostwald / Ubbelohde) method; for mass density: Vibrating tube method
# [2] = refractive index (Na D-line) (dimensionless); settings: 298.15 K; 101.33 kPa; Liquid; Standard Abbe refractometry
# [3] = xn = mol fraction of the nth substance listed; settings: 298.15 K, 101.3 kPa, Liquid; for viscosity: Capillary tube (Ostwald / Ubbelohde) method
# [4] = refractive index (Na D-line) (dimensionless); xn = mol fraction of the nth substance listed; settings: 298.15 K, 101.3 kPa, Liquid, Standard Abbe refractometry
smiles,measurement,setting,value
CCCCCCCCn1cc[n+](C)c1.O=S(=O)([N-]S(=O)(=O)C(F)(F)F)C(F)(F)F,viscosity,[1],92.51 ± 1.4 mPa·s
same,mass density,[1],1320.59 ± 0.5 kg/m3
same,refractive index,[2],1.43298 ± 0.00037
CCCCCCCCn1cc[n+](C)c1.O=S(=O)([N-]S(=O)(=O)C(F)(F)F)C(F)(F)F + CCO,viscosity,[3]; x2 = 0.0959,71.28 ± 0.88 mPa·s
same,viscosity,[3]; x2 = 0.1162,67.63 ± 0.81 mPa·s
same,viscosity,[3]; x2 = 0.1935,55.53 ± 0.61 mPa·s
same,viscosity,[3]; x2 = 0.2269,51.54 ± 0.56 mPa·s
same,viscosity,[3]; x2 = 0.3304,39.23 ± 0.44 mPa·s
same,viscosity,[3]; x2 = 0.4164,29.89 ± 0.34 mPa·s
same,viscosity,[3]; x2 = 0.5412,19.92 ± 0.22 mPa·s
same,viscosity,[3]; x2 = 0.6012,15.86 ± 0.18 mPa·s
same,viscosity,[3]; x2 = 0.7033,10.25 ± 0.11 mPa·s
same,viscosity,[3]; x2 = 0.8067,5.83 ± 0.065 mPa·s
same,viscosity,[3]; x2 = 0.8967,3.079 ± 0.035 mPa·s
same,mass density,[3]; x2 = 0.0959,1311.29 ± 1.5 kg/m3
same,mass density,[3]; x2 = 0.1162,1309.17 ± 1.5 kg/m3
same,mass density,[3]; x2 = 0.1935,1300.29 ± 1.4 kg/m3
same,mass density,[3]; x2 = 0.2269,1296.02 ± 1.4 kg/m3
same,mass density,[3]; x2 = 0.3304,1280.78 ± 1.3 kg/m3
same,mass density,[3]; x2 = 0.4164,1265.19 ± 1.2 kg/m3
same,mass density,[3]; x2 = 0.5412,1235.17 ± 1.1 kg/m3
same,mass density,[3]; x2 = 0.6012,1216.21 ± 1 kg/m3
same,mass density,[3]; x2 = 0.7033,1173.46 ± 0.84 kg/m3
same,mass density,[3]; x2 = 0.8067,1106.85 ± 0.62 kg/m3
same,mass density,[3]; x2 = 0.8967,1010.5 ± 0.31 kg/m3
same,refractive index,[4]; x2 = 0.0959,1.43164 ± 0.00036
same,refractive index,[4]; x2 = 0.1162,1.43133 ± 0.00036
same,refractive index,[4]; x2 = 0.1935,1.43016 ± 0.00035
same,refractive index,[4]; x2 = 0.2269,1.42965 ± 0.00035
same,refractive index,[4]; x2 = 0.3304,1.42766 ± 0.00034
same,refractive index,[4]; x2 = 0.4164,1.42549 ± 0.00034
same,refractive index,[4]; x2 = 0.5412,1.42143 ± 0.00033
same,refractive index,[4]; x2 = 0.6012,1.41886 ± 0.00032
same,refractive index,[4]; x2 = 0.7033,1.41319 ± 0.00032
same,refractive index,[4]; x2 = 0.8067,1.40447 ± 0.00032
same,refractive index,[4]; x2 = 0.8967,1.39142 ± 0.00031
CCCCCCCCn1cc[n+](C)c1.O=S(=O)([N-]S(=O)(=O)C(F)(F)F)C(F)(F)F + CCOC(C)=O,viscosity,[3]; x2 = 0.0493,78.89 ± 1.1 mPa·s
same,viscosity,[3]; x2 = 0.1112,65.93 ± 0.78 mPa·s
same,viscosity,[3]; x2 = 0.1546,58.25 ± 0.66 mPa·s
same,viscosity,[3]; x2 = 0.2125,48.82 ± 0.56 mPa·s
same,viscosity,[3]; x2 = 0.3102,34.78 ± 0.4 mPa·s
same,viscosity,[3]; x2 = 0.404,24.15 ± 0.27 mPa·s
same,viscosity,[3]; x2 = 0.4779,17.54 ± 0.2 mPa·s
same,viscosity,[3]; x2 = 0.5967,9.795 ± 0.11 mPa·s
same,viscosity,[3]; x2 = 0.7035,5.384 ± 0.062 mPa·s
same,viscosity,[3]; x2 = 0.8233,2.284 ± 0.026 mPa·s
same,viscosity,[3]; x2 = 0.9016,1.233 ± 0.014 mPa·s
same,mass density,[3]; x2 = 0.0493,1314.93 ± 1.6 kg/m3
same,mass density,[3]; x2 = 0.1112,1307.34 ± 1.5 kg/m3
same,mass density,[3]; x2 = 0.1546,1301.55 ± 1.4 kg/m3
same,mass density,[3]; x2 = 0.2125,1293.1 ± 1.4 kg/m3
same,mass density,[3]; x2 = 0.3102,1276.6 ± 1.3 kg/m3
same,mass density,[3]; x2 = 0.404,1257.53 ± 1.2 kg/m3
same,mass density,[3]; x2 = 0.4779,1239.88 ± 1.1 kg/m3
same,mass density,[3]; x2 = 0.5967,1203.86 ± 0.97 kg/m3
same,mass density,[3]; x2 = 0.7035,1160.22 ± 0.81 kg/m3
same,mass density,[3]; x2 = 0.8233,1089.62 ± 0.57 kg/m3
same,mass density,[3]; x2 = 0.9016,1022.64 ± 0.35 kg/m3
same,refractive index,[4]; x2 = 0.0493,1.43216 ± 0.00037
same,refractive index,[4]; x2 = 0.1112,1.43115 ± 0.00036
same,refractive index,[4]; x2 = 0.1546,1.43042 ± 0.00036
same,refractive index,[4]; x2 = 0.2125,1.4293 ± 0.00035
same,refractive index,[4]; x2 = 0.3102,1.42726 ± 0.00035
same,refractive index,[4]; x2 = 0.404,1.42453 ± 0.00034
same,refractive index,[4]; x2 = 0.4779,1.42219 ± 0.00033
same,refractive index,[4]; x2 = 0.5967,1.41721 ± 0.00033
same,refractive index,[4]; x2 = 0.7035,1.41123 ± 0.00032
same,refractive index,[4]; x2 = 0.8233,1.40097 ± 0.00032
same,refractive index,[4]; x2 = 0.9016,1.391 ± 0.00032
CCO [ethanol],viscosity,[1],1.054 ± 0.012 mPa·s
same,refractive index,[2],1.35928 ± 0.00031
CCOC(C)=O [ethyl acetate],viscosity,[1],0.4256 ± 0.0051 mPa·s
same,mass density,[1],894.4 ± 0.1 kg/m3
same,refractive index,[2],1.36983 ± 0.00031
CCOC(C)=O [ethyl acetate] + CCO,viscosity,[3]; x1 = 0.0941,0.855 ± 0.01 mPa·s
same,viscosity,[3]; x1 = 0.1919,0.692 ± 0.008 mPa·s
same,viscosity,[3]; x1 = 0.2836,0.619 ± 0.007 mPa·s
same,viscosity,[3]; x1 = 0.4044,0.541 ± 0.006 mPa·s
same,viscosity,[3]; x1 = 0.5014,0.505 ± 0.006 mPa·s
same,viscosity,[3]; x1 = 0.6085,0.467 ± 0.006 mPa·s
same,viscosity,[3]; x1 = 0.6949,0.444 ± 0.005 mPa·s
same,viscosity,[3]; x1 = 0.7929,0.436 ± 0.005 mPa·s
same,viscosity,[3]; x1 = 0.8957,0.424 ± 0.005 mPa·s
same,mass density,[3]; x1 = 0.0941,800.65 ± 0.87 kg/m3
same,mass density,[3]; x1 = 0.1919,815.09 ± 0.83 kg/m3
same,mass density,[3]; x1 = 0.2836,827.27 ± 0.79 kg/m3
same,mass density,[3]; x1 = 0.4044,841.69 ± 0.75 kg/m3
same,mass density,[3]; x1 = 0.5014,852.05 ± 0.72 kg/m3
same,mass density,[3]; x1 = 0.6085,862.53 ± 0.68 kg/m3
same,mass density,[3]; x1 = 0.6949,870.3 ± 0.66 kg/m3
same,mass density,[3]; x1 = 0.7929,878.51 ± 0.63 kg/m3
same,mass density,[3]; x1 = 0.8957,886.6 ± 0.61 kg/m3
same,refractive index,[4]; x1 = 0.0941,1.36064 ± 0.00031
same,refractive index,[4]; x1 = 0.1919,1.36193 ± 0.00031
same,refractive index,[4]; x1 = 0.2836,1.36309 ± 0.00031
same,refractive index,[4]; x1 = 0.4044,1.36447 ± 0.00031
same,refractive index,[4]; x1 = 0.5014,1.36548 ± 0.00031
same,refractive index,[4]; x1 = 0.6085,1.36649 ± 0.00031
same,refractive index,[4]; x1 = 0.6949,1.36724 ± 0.00031
same,refractive index,[4]; x1 = 0.7929,1.36811 ± 0.00031
same,refractive index,[4]; x1 = 0.8957,1.36895 ± 0.00031
